From patent publication US8691818B2, “Cyclic triazo and diazo sodium channel blockers” (University Of Greenwich, priority 2008, dated 2014)
Structures can show the parent of a compound that is named as a salt.

Columns and labels:
Sodium Channel, Site 2 = format: binding, Wistar Rat; conditions: for IC50: read-out: [3H]BTX-B binding Extrapolated IC50
[1] = target: T1, DiHydroFolate Reductase (DHFR) (Rattus norvegicus, UniProt Q920D2); experiment: Inhibition of binding of [3H]methotrexate to rat liver homogenate supernatant; conditions: 125 μM; read-out: [3H]mtx binding (% inhibition @ 125 μM)
T1 construct: from tissue; host or cells: rat liver homogenate supernatant
T1 sequence (Q920D2 1-187): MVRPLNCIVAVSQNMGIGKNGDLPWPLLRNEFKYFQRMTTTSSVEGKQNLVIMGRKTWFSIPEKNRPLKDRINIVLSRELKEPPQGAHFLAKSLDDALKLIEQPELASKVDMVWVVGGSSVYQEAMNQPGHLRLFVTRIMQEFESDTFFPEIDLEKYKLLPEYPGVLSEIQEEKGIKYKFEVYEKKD
Procedure, shortened: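 Displacement of [3H]methotrexate binding to rat liver homogenate supernatant, prepared at 4 °C in pH 6.0 phosphate buffer with 15 mM dithiothreitol. Values are mean±sem over the number of experiments shown.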

sodium channel = experiment: [14C]guanidine flux: veratrine-evoked uptake of [14C]guanidine into rat forebrain synaptosomes (primary sodium channel assay); format: biochemical; conditions: 30° for 2½ min
Procedure, shortened: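 Synaptosomal fraction from male Wistar rat forebrain (without cerebellum/medulla), 20-25 mg wet weight/ml. Veratrine-evoked [14C]guanidine uptake at 30° for 2½ min across a compound concentration range; IC50 from concentration-effect curves, mean±sem.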

hERG = hERG (Homo sapiens, UniProt Q12809); experiment: hERG: inhibition of binding of [3H]astemizole to HEK-293 cells expressing human recombinant hERG; conditions: for inhibition at 10 µM: human, probe [3H]astemizole
Chain of hERG (Q12809 whole entry): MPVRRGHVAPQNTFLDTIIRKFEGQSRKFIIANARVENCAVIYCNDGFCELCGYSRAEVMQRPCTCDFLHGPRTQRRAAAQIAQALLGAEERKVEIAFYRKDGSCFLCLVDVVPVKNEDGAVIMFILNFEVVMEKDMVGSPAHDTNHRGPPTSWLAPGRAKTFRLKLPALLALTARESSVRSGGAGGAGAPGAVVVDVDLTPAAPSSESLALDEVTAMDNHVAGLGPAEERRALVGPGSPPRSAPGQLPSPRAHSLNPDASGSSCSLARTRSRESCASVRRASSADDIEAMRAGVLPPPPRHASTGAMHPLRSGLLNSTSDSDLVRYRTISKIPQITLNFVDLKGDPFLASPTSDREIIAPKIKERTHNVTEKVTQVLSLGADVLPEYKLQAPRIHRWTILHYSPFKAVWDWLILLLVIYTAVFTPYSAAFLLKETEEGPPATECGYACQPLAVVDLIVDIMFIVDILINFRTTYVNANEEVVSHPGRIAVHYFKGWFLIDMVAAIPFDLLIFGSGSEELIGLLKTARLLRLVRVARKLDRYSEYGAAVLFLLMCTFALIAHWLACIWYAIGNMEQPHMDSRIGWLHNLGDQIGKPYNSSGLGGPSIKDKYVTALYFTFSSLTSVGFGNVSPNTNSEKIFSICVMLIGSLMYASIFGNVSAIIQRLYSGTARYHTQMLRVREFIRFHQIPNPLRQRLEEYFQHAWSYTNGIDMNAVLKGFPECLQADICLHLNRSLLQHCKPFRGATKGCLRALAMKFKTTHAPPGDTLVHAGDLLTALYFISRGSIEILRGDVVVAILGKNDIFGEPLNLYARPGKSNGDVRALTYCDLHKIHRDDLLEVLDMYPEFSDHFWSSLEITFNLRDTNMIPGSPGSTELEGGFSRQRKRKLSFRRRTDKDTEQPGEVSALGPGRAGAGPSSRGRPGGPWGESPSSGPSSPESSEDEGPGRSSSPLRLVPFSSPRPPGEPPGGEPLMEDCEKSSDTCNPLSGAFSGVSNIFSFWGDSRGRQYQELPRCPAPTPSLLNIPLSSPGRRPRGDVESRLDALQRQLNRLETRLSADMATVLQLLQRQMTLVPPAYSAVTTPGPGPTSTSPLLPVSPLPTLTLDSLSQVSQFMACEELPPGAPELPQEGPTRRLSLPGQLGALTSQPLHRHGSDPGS

L-Type Calcium Channels = experiment: L-type calcium channels: inhibition of binding of [3H]nitrendipine to rat cerebral cortex membranes; conditions: for L-type Ca2+ % inhibition @ 10 μM: [3H]nitrendipine binding; for IC50: read-out: L-type Ca2+ IC50 (μM) (extrapolated from 10 μM inh'n), extrapolated assuming binding slope 1.0

CCn1nc(-c2cc(C(F)(F)F)cc(Cl)c2F)c(N)nc1=N [CEN-203, 5(3)-Amino-6-(3-chloro-2-fluoro-5-trifluoromethyphenyl)-2,3(2,5)-dihydro-3(5)-imino-2-ethyl-1,2,4-triazine mesylate]
[3H]BTX-B binding % inhibition (@ 10 μM) (Sodium Channel, Site 2): 102%
IC50 (Sodium Channel, Site 2): < 0.5 µM

Nc1nnc(C(c2ccc(Cl)cc2)c2ccc(Cl)cc2)c(N)n1 [CEN-213, 3,5-Diamino-6-[1,1 bis-(4-chlorophenyl)methyl]-1,2,4-triazine]
[3H]BTX-B binding % inhibition (@ 10 μM) (Sodium Channel, Site 2): −2%
IC50 (Sodium Channel, Site 2): > 200 µM

Cc1ccc(S(=O)(=O)O)cc1.Nc1nnc(-c2cc(C(F)(F)F)ccc2C(F)(F)F)c(N)n1 [CEN-198, 3,5-Diamino-6-[2,5-bis(trifluoromethyl)phenyl]-1,2,4-triazine tosylate]
[3H]BTX-B binding % inhibition (@ 10 μM) (Sodium Channel, Site 2): 23%
IC50 (Sodium Channel, Site 2): 34 µM

CCn1nc(-c2cc(F)c(F)cc2Cl)c(N)nc1=N.CS(=O)(=O)O [CEN-205, 5(3)-Amino-6-(2-chloro-4,5-difluoro-5-phenyl)-2,3(2,5)-dihydro-3(5)-imino-2-ethyl-1,2,4-triazine mesylate]
[3H]BTX-B binding % inhibition (@ 10 μM) (Sodium Channel, Site 2): 79%
IC50 (Sodium Channel, Site 2): 3 µM

Nc1nnc(-c2cc(Cl)ccc2C(F)(F)F)c(N)n1 [CEN-200, 3,5-Diamino-6-(5-chloro-2-trifluoromethylphenyl)-1,2,4-triazine]
[3H]BTX-B binding % inhibition (@ 10 μM) (Sodium Channel, Site 2): 14%
IC50 (Sodium Channel, Site 2): 61 µM
melting point: 242 to 243 °C

Nc1nnc(-c2cc(F)c(F)c(F)c2F)c(N)n1 [CEN-208, 3,5-Diamino-6-(2,3,4,5-tetrafluorophenyl)-1,2,4-triazine]
[3H]BTX-B binding % inhibition (@ 10 μM) (Sodium Channel, Site 2): 31%
IC50 (Sodium Channel, Site 2): 22 µM
melting point: 233 to 235 °C

Cc1ccc(S(=O)(=O)O)cc1.Nc1nnc(-c2c(Cl)ccc(Cl)c2Cl)c(N)n1 [CEN-214, 3,5-Diamino-6-(2,3,6-trichlorophenyl)-1,2,4-triazine tosylate]
[3H]BTX-B binding % inhibition (@ 10 μM) (Sodium Channel, Site 2): 10%
IC50 (Sodium Channel, Site 2): 90 µM

COc1ccc(-c2nnc(N)nc2-c2ccc(OC)cc2)cc1 [CEN-127, 3-Amino-5,6-bis(4-methoxylphenyl)-1,2,4-triazine]
inhibition at 125 µM [1]: -24%
IC50 (sodium channel): 85.1 µM
IC50 (hERG): > 200 µM
inhibition at 10 µM (hERG): 2%
melting point: 179 to 181 °C

Nc1cnc(-c2cccc(Cl)c2Cl)c(N)n1 [CEN-87, 2,6-Diamino-3-(2,3-dichlorophenyl)pyrazine]
inhibition at 125 µM [1]: -5%
IC50 (sodium channel): 288 µM
IC50 (hERG): > 200 µM
inhibition at 10 µM (hERG): 3%
melting point: 150 to 153 °C
L-type Ca2+ % inhibition @ 10 μM (L-Type Calcium Channels): 7%
IC50 (L-Type Calcium Channels): 133 µM

Cc1ccc(S(=O)(=O)O)cc1.Nc1nnc(-c2c(F)c(F)c(F)c(F)c2F)c(N)n1 [CEN-212, 3,5-Diamino-6-(2,3,4,5,6-pentafluorophenyl)-1,2,4-triazine tosylate]
[3H]BTX-B binding % inhibition (@ 10 μM) (Sodium Channel, Site 2): 0%
IC50 (Sodium Channel, Site 2): > 200 µM

CC(C)(Oc1ccc(Cl)cc1)c1nnc(N)nc1N [CEN-215, 3,5-Diamino-6-{1-(4-chlorophenoxy)-1-methyl}ethyl-1,2,4-triazine tosylate]
[3H]BTX-B binding % inhibition (@ 10 μM) (Sodium Channel, Site 2): 22%
IC50 (Sodium Channel, Site 2): 35 µM

Nc1nnc(-c2ccc(F)c(F)c2F)c(N)n1 [CEN-206, 3,5-Diamino-6-(2,3,4-trifluorophenyl)-1,2,4-triazine]
[3H]BTX-B binding % inhibition (@ 10 μM) (Sodium Channel, Site 2): 24%
IC50 (Sodium Channel, Site 2): 32 µM
melting point: 242 to 243 °C

Cn1nc(-c2cc(C(F)(F)F)cc(Cl)c2F)c(N)nc1=N [CEN-202, 5(3)-Amino-6-(3-chloro-2-fluoro-5-trifluoromethyphenyl)-2,3(2,5)-dihydro-3(5)-imino-2-methyl-1,2,4-triazine mesylate]
[3H]BTX-B binding % inhibition (@ 10 μM) (Sodium Channel, Site 2): 90%
IC50 (Sodium Channel, Site 2): 1 µM

Nc1nnc(-c2cc(F)c(F)cc2Cl)c(N)n1 [CEN-207, 3,5-Diamino-6-(2-chloro-4,5-difluorophenyl)-1,2,4-triazine]
[3H]BTX-B binding % inhibition (@ 10 μM) (Sodium Channel, Site 2): 30%
IC50 (Sodium Channel, Site 2): 23 µM
melting point: 240 to 242 °C

Nc1nnc(-c2cccc(C(F)(F)F)c2Cl)c(N)n1 [CEN-199, 3,5-Diamino-6-(2-chloro-3-trifluoromethylphenyl)-1,2,4-triazine]
[3H]BTX-B binding % inhibition (@ 10 μM) (Sodium Channel, Site 2): 29%
IC50 (Sodium Channel, Site 2): 25 µM

Cn1nc(-c2cc(F)c(F)cc2Cl)c(N)nc1=N [CEN-204, 5(3)-Amino-6-(2-chloro-4,5-difluoro-5-phenyl)-2,3(2,5)-dihydro-3(5)-imino-2-methyl-1,2,4-triazine mesylate]
[3H]BTX-B binding % inhibition (@ 10 μM) (Sodium Channel, Site 2): 52%
IC50 (Sodium Channel, Site 2): 9 µM

CCn1nc(-c2cccc3ccccc23)c(N)nc1=N [CEN-77, 5(3)-Amino-6-(1-naphthyl)-2,3(2,5)-dihydro-3(5)-imino-2-ethyl-1,2,4-triazine]
inhibition at 125 µM [1]: -1%
IC50 (sodium channel): 14.5 µM
IC50 (hERG): 18 µM
inhibition at 10 µM (hERG): 36%
melting point: 191 to 193 °C

CC(C)C(c1ccccc1)c1nnc(N)nc1N (stereo not drawn) [CEN-201, 3,5-Diamino-6-(1-isopropyl-1-phenylmethy)-1,2,4-triazine]
[3H]BTX-B binding % inhibition (@ 10 μM) (Sodium Channel, Site 2): 3%
IC50 (Sodium Channel, Site 2): > 200 µM

Cn1nc(-c2cc(Cl)sc2Cl)c(N)nc1=N [CEN-80, 5(3)-Amino-6-[3-(2,5-dichlorothienyl)]-2,3(2,5)-dihydro-3(5)-imino-2-methyl-1,2,4-triazine]
inhibition at 125 µM [1]: -1%
IC50 (sodium channel): 123 µM
IC50 (hERG): 61 µM
inhibition at 10 µM (hERG): 14%
melting point: 286 to 288 °C

Nc1nnc(-c2cccc3c2-c2ccccc2C3)c(N)n1 [CEN-129]
inhibition at 125 µM [1]: -3%
IC50 (sodium channel): 190 µM
IC50 (hERG): 133 µM
inhibition at 10 µM (hERG): 7%
melting point: 240 to 242 °C

Nc1nnc(-c2ccc(Oc3ccccc3)cc2)c(N)n1 [CEN-93, 3,5-Diamino-6-(4-phenoxphenyl)-1,2,4-triazine]
inhibition at 125 µM [1]: 4%
IC50 (sodium channel): 63.1 µM
IC50 (hERG): 19 µM
inhibition at 10 µM (hERG): 35%
melting point: 266 to 267 °C

Cn1nc(-c2cccc3ccccc23)c(N)nc1=N [CEN-78, 5(3)-Amino-6-(1-naphthyl)-2,3(2,5)-dihydro-3(5)-imino-2-methyl-1,2,4-triazine]
inhibition at 125 µM [1]: 9%
IC50 (sodium channel): 102 µM
IC50 (hERG): 32 µM
inhibition at 10 µM (hERG): 24%
melting point: 248 to 250 °C

Cn1nc(-c2ccccc2Oc2ccccc2)c(N)nc1=N [CEN-105, 5(3)-Amino-6-(2-phenoxyphenyl)-2,3(2,5)-dihydro-3(5)-imino-2-methyl-1,2,4-triazine]
inhibition at 125 µM [1]: 86%
IC50 (sodium channel): 100 µM
IC50 (hERG): 19 µM
inhibition at 10 µM (hERG): 35%
melting point: 164 to 166 °C

Cn1nc(-c2cccc(C(F)(F)F)c2Cl)c(N)nc1=N [CEN-177, 5(3)-Amino-6-(2-chloro-3-trifluoromethyphenyl)-2,3(2,5)-dihydro-3(5)-imino-2-methyl-1,2,4-triazine]
inhibition at 125 µM [1]: 16%
IC50 (sodium channel): 14 µM
IC50 (hERG): 35 µM
inhibition at 10 µM (hERG): 22%
melting point: 205 to 207 °C

Cc1ccc(-c2nnc(N)nc2-c2ccc(C)cc2)cc1 [CEN-126, 3-Amino-5,6-bis(4-methylphenyl)-1,2,4-triazine]
inhibition at 125 µM [1]: -12%
IC50 (sodium channel): 58.9 µM
IC50 (hERG): 3 µM
inhibition at 10 µM (hERG): 79%
melting point: 134 to 136 °C

Nc1nnc(C2c3ccccc3Oc3ccccc32)c(N)n1 [CEN-182, 3,5-Diamino-6-(9-xanthyl)-1,2,4-triazine]
inhibition at 125 µM [1]: 6%
IC50 (sodium channel): 214 µM
IC50 (hERG): 90 µM
inhibition at 10 µM (hERG): 10%
melting point: 159 to 161 °C

Cc1ccc(S(=O)(=O)O)cc1.Nc1nnc(-c2c(C(F)(F)F)ccc(Cl)c2Cl)c(N)n1 [CEN-209, 3,5-Diamino-6-(2,3-dichloro-6-trifluoromethylphenyl)-1,2,4-triazine tosylate]
[3H]BTX-B binding % inhibition (@ 10 μM) (Sodium Channel, Site 2): 36%
IC50 (Sodium Channel, Site 2): 18 µM

CCc1nc(N)nc(N)c1-c1ccc(Cl)cc1 [CEN-48, 2,4-Diamino-5-(4-chlorophenyl)-6-ethyl-pyrimidine, reference compound]
IC50 (sodium channel): 5.8 µM
IC50 (hERG): 46 µM
inhibition at 10 µM (hERG): 18%
L-type Ca2+ % inhibition @ 10 μM (L-Type Calcium Channels): −1%
IC50 (L-Type Calcium Channels): > 190 µM

N=c1nc(N)c(-c2cc(C(F)(F)F)cc(Cl)c2F)nn1CC(F)(F)C(F)F.O=S(=O)(O)C(F)(F)F [CEN-210, 5(3)-Amino-6-(3-chloro-2-fluoro-5-trifluoromethyphenyl)-2,3(2,5)-dihydro-3(5)-imino-2-(2,2,3,3-tetrafluoropropyl)-1,2,4-triazine trifluoromethanesulphonate]
[3H]BTX-B binding % inhibition (@ 10 μM) (Sodium Channel, Site 2): 43%
IC50 (Sodium Channel, Site 2): 13 µM

N=c1nc(N)c(-c2cc(C(F)(F)F)cc(Cl)c2F)nn1CC(F)(F)C(F)(F)F.O=S(=O)(O)C(F)(F)F [CEN-211, 5(3)-Amino-6-(3-chloro-2-fluoro-5-trifluoromethyphenyl)-2,3(2,5)-dihydro-3(5)-imino-2-(2,2,3,3,3-pentafluoropropyl)-1,2,4-triazine trifluoromethanesulphonate]
[3H]BTX-B binding % inhibition (@ 10 μM) (Sodium Channel, Site 2): 106%
IC50 (Sodium Channel, Site 2): < 0.5 µM
